What follows are compounds tested on HCT116 colorectal cancer cells (assay: Cisplatin sensitization assay (96 h MTS cell viability)). Conditions: Cisplatin sensitization value.
Assay type: cell-based
Method in brief: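 HCT116 cells were dosed simultaneously with compound and cisplatin as a full matrix of 2-fold serial dilutions from 10 μM top final concentration. Incubation was 96 h at 37° C., 5% CO2, followed by 1 h with MTS reagent for the viability read-out. Sensitization values were binned into +++, ++ and + categories.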
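Further: compound concentration needed to lower the IC50 of Cisplatin alone by a set fold.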

**Q.** For `CN1CCC(c2ccncc2NC(=O)c2c(N)nn3cc(F)cnc23)CC1=O` (stereo not shown) [I-C-73, 2-amino-6-fluoro-N-(4-(1-methyl-2-oxopiperidin-4-yl)pyridin-3-yl)pyrazolo[1,5-a]pyrimidine-3-carboxamide], which “Cisplatin Sensitization Assay” value is on record?
**A.** Its value is “++ (Compounds with a Cisplatin sensitization value >0.02 μM but <0.2 μM are marked with “++.”)”.

**Q.** Which “Cisplatin Sensitization Assay” value does the source give for `Nc1nn2cc(F)cnc2c1C(=O)Nc1cnccc1N1CCC(C(=O)N2CC(F)(F)C2)CC1` [I-G-80, 2-amino-N-(4-(4-(3,3-difluoroazetidine-1-carbonyl)piperidin-1-yl)pyridin-3-yl)-6-fluoropyrazolo[1,5-a]pyrimidine-3-carboxamide] here?
**A.** Its value is “+++ (Compounds with a Cisplatin sensitization value of <0.02 μM are marked with “+++.”)”.

**Q.** With `CN1CCN(c2c(F)cncc2NC(=O)c2c(N)nn3cc(F)cnc23)CC1` [I-N-15, 2-amino-6-fluoro-N-(5-fluoro-4-(4-methylpiperazin-1-yl)pyridin-3-yl)pyrazolo[1,5-a]pyrimidine-3-carboxamide] as the compound, how does the “Cisplatin Sensitization Assay” value read?
**A.** Its value is “+++ (Compounds with a Cisplatin sensitization value of <0.02 μM are marked with “+++.”)”.

**Q.** `CN1CCN(c2c(NC(=O)c3c(N)nn4cc(F)cnc34)cncc2C2CC2)CC1` [I-N-5, 2-amino-N-(5-cyclopropyl-4-(4-methylpiperazin-1-yl)pyridin-3-yl)-6-fluoropyrazolo[1,5-a]pyrimidine-3-carboxamide] was tested. Which “Cisplatin Sensitization Assay” value did it give?
**A.** The value was “++ (Compounds with a Cisplatin sensitization value >0.02 μM but <0.2 μM are marked with “++.”)”.

**Q.** Which “Cisplatin Sensitization Assay” value does the source give for `CN1CCN(c2c(F)cncc2NC(=O)c2c(N)nn3cc(C(C)(C)C#N)cnc23)CC1` [I-N-138, 2-amino-6-(2-cyanopropan-2-yl)-N-(5-fluoro-4-(4-methylpiperazin-1-yl)pyridin-3-yl)pyrazolo[1,5-a]pyrimidine-3-carboxamide] here?
**A.** The value was “++ (Compounds with a Cisplatin sensitization value >0.02 μM but <0.2 μM are marked with “++.”)”.

**Q.** With `Nc1nn2cc(F)cnc2c1C(=O)Nc1cnccc1-n1ccnc1C(F)(F)F` [I-N-219, 2-amino-6-fluoro-N-(4-(2-(trifluoromethyl)-1H-imidazol-1-yl)pyridin-3-yl)pyrazolo[1,5-a]pyrimidine-3-carboxamide] as the compound, how does the “Cisplatin Sensitization Assay” value read?
**A.** Its value is “+++ (Compounds with a Cisplatin sensitization value of <0.02 μM are marked with “+++.”)”.

**Q.** For `CN(C)[C@@H]1CCN(C(=O)C2CCN(c3c(F)cncc3NC(=O)c3c(N)nn4cc(F)cnc34)CC2)C1` [I-G-11, (R)-2-amino-N-(4-(4-(3-(dimethylamino)pyrrolidine-1-carbonyl)piperidin-1-yl)-5-fluoropyridin-3-yl)-6-fluoropyrazolo[1,5-a]pyrimidine-3-carboxamide], which “Cisplatin Sensitization Assay” value is on record?
**A.** Its value is “+++ (Compounds with a Cisplatin sensitization value of <0.02 μM are marked with “+++.”)”.

**Q.** For `CN(C)C1CCCN(c2ccncc2NC(=O)c2c(N)nn3cc(Cl)cnc23)C1` (stereo not shown) [I-N-40, 2-amino-6-chloro-N-(4-(3-(dimethylamino)piperidin-1-yl)pyridin-3-yl)pyrazolo[1,5-a]pyrimidine-3-carboxamide], which “Cisplatin Sensitization Assay” value is on record?
**A.** Its value is “++ (Compounds with a Cisplatin sensitization value >0.02 μM but <0.2 μM are marked with “++.”)”.

**Q.** `N#CCc1cnc2c(C(=O)Nc3cnccc3N3CCC(O)CC3)c(N)nn2c1` [I-N-83, 2-amino-6-(cyanomethyl)-N-(4-(4-hydroxypiperidin-1-yl)pyridin-3-yl)pyrazolo[1,5-a]pyrimidine-3-carboxamide] was tested. Which “Cisplatin Sensitization Assay” value did it give?
**A.** Its value is “++ (Compounds with a Cisplatin sensitization value >0.02 μM but <0.2 μM are marked with “++.”)”.

**Q.** For `CN(C)CC1CCN(c2ccncc2NC(=O)c2c(N)nn3cc(Cl)cnc23)CC1` [I-N-45, 2-amino-6-chloro-N-(4-(4-((dimethylamino)methyl)piperidin-1-yl)pyridin-3-yl)pyrazolo[1,5-a]pyrimidine-3-carboxamide], which “Cisplatin Sensitization Assay” value is on record?
**A.** The value was “++ (Compounds with a Cisplatin sensitization value >0.02 μM but <0.2 μM are marked with “++.”)”.
